SMILES strings stand for the structures. ≈ marks a conversion by molar mass, not a printed value.

This test deals with Bacillus anthracis. The test can be described thus: Antibacterial activity against Bacillus anthracis Sterne after 16 hrs by alamar blue broth microdilution technique. The format is functional. In general terms: Alamar Blue is a resazurin reagent that responds to reducing activity.
What is called MIC is the lowest concentration found to suppress growth. `COc1cc(Cc2cnc(N)nc2N)cc(/C=C/C(=O)N2N=Cc3ccccc3C2c2ccccc2C)c1OC` (racemic) had an MIC of 8 µg/mL (≈ 15 µM).

With `COc1cc(Cc2cnc(N)nc2N)cc(/C=C/C(=O)N2N=Cc3ccccc3C2CC(C)C)c1OC` (racemic), the MIC came out at 1 µg/mL (≈ 2 µM).

Regarding `COc1cc(Cc2cnc(N)nc2N)cc(/C=C/C(=O)N2N=Cc3ccccc3C2CCC(F)(F)F)c1OC` (racemic), 1 µg/mL (≈ 1.85 µM) was the least that counted as inhibitory (MIC).

Turning to `COc1cc(Cc2cnc(N)nc2N)cc(/C=C/C(=O)N2N=Cc3ccccc3C2Cc2ccc(OC(F)(F)F)cc2)c1OC` (racemic), inhibition of growth (MIC) required 4 µg/mL (≈ 6.47 µM).

`COc1cc(Cc2cnc(N)nc2N)cc(/C=C/C(=O)N2N=Cc3ccccc3C2c2cccc(F)c2)c1OC` (racemic): the MIC stood at 2 µg/mL (≈ 3.71 µM).

The molecule `CCCC1c2ccccc2C=NN1C(=O)/C=C/c1cc(Cc2cnc(N)nc2N)cc(OC)c1OC` (racemic) displayed an MIC of 1 µg/mL (≈ 2.06 µM).

In turn, `COc1cc(Cc2cnc(N)nc2N)cc(/C=C/C(=O)N2N=Cc3ccccc3C2c2cc(C)cc(C)c2)c1OC` (racemic) returned an MIC of 4 µg/mL (≈ 7.29 µM). Compared with the last molecule, the MIC is about 4-fold higher.

For `COc1cc(Cc2cnc(N)nc2N)cc(/C=C/C(=O)N2N=Cc3ccccc3C2c2ccc(F)cc2)c1OC` (racemic), inhibition of growth (MIC) required 1 µg/mL (≈ 1.86 µM).

For the molecule `COc1cc(Cc2cnc(N)nc2N)cc(/C=C/C(=O)N2N=Cc3ccccc3C2Cc2ccc(C)cc2)c1OC` (racemic), the MIC is 4 µg/mL (≈ 7.29 µM).

`COc1cc(Cc2cnc(N)nc2N)cc(/C=C/C(=O)N2N=Cc3ccccc3C2Cc2ccccc2)c1OC` (racemic) gave an MIC of 8 µg/mL (≈ 15 µM). This MIC lies about 2-fold higher than the previous one.

Molecule `COc1cc(Cc2cnc(N)nc2N)cc(/C=C/C(=O)N2N=Cc3ccccc3C2C2CCCCC2)c1OC` (racemic) had an MIC of 1 µg/mL (≈ 1.9 µM).

The molecule `COc1cc(Cc2cnc(N)nc2N)cc(/C=C/C(=O)N2N=Cc3ccccc3C2c2ccc(C)cc2)c1OC` (racemic) registered an MIC of 1 µg/mL (≈ 1.87 µM).

As to `CCC(CC)C1c2ccccc2C=NN1C(=O)/C=C/c1cc(Cc2cnc(N)nc2N)cc(OC)c1OC` (racemic), the MIC turned out to be 4 µg/mL (≈ 7.77 µM).

As for `COc1ccc(CC2c3ccccc3C=NN2C(=O)/C=C/c2cc(Cc3cnc(N)nc3N)cc(OC)c2OC)cc1` (racemic), the MIC came out at 8 µg/mL (≈ 14.2 µM).

With `COc1cc(Cc2cnc(N)nc2N)cc(/C=C/C(=O)N2N=Cc3ccccc3C2c2ccccc2)c1OC` (racemic), it took 0.375 µg/mL (≈ 0.72 µM) to inhibit growth (MIC).

On to `COc1cc(Cc2cnc(N)nc2N)cc(/C=C/C(=O)N2N=Cc3ccccc3C2C(C)C)c1OC` (racemic), for which the MIC worked out at 1 µg/mL (≈ 2.06 µM).

The values are drawn from ChEMBL document CHEMBL2040814, “Synthesis and biological activity of substituted 2,4-diaminopyrimidines that inhibit Bacillus anthracis” (2012).
